Experiments:
[1] = system: human red blood cells (RBC); assay: Hemolysis assay; settings: low concentrations, 37° C., 20 hours
Protocol: Briefly, each sample was serially diluted with phosphate buffered saline (PBS), and 0.5 ml of each dilute suspension was mixed with 0.5 ml washed human red blood cells (RBC) [4% in PBS (v/v)]. Sample and standard were placed in a 37° C. incubator and agitated for 20 hours. Tubes were centrifuged at low speed (2000×G) for 10 minutes and 200 μl of the supernatant was quantitated by absorbance at 550 nm. 100 percent hemolysis was defined as the maximum amount of hemolysis obtained from the detergent Triton X-100.
1-O-octadecyl-2-O-methyl-sn-glycero-3-phosphocholine (ET-18-OCH3) in PBS was included in the assay as a reference.
Briefly, each sample was serially diluted with PBS, and 0.5 ml of each dilute suspension of 1-O-DPPC liposomes were mixed with 0.5 ml washed human red blood cells (RBC) [4% in PBS (v/v)]. For controls, 0.5 ml of the red blood cell suspension was mixed with either 0.5 ml buffer solution (negative hemolysis control) or 0.5 ml water (positive hemolysis control). Samples and standard were placed in a 37° C. incubator and agitated for 20 hours. Tubes were centrifuged at low speed (2000×G) for 10 minutes to form RBCs pellets. 200 μl of the supernatant was quantitated by absorbance at 550 nm using a Perkin-Elmer 320 scanning spectrophotometer. 100 percent hemolysis was defined as the maximum amount of hemolysis obtained from the detergent Triton X-100.

mice = assay: In vivo hemolysis assay; settings: i.v., 50 mg/kg
Protocol: Groups of mice (n=5/group; weight 18-22 g) were treated i.v. with buffer (PBS), ET-18-OCH3 (50 mg/kg), and liposomes composed of 1-O-DPPC with 5 mol % 1-O-DPPE-PEG2000 (68.7 and 137.5 mg/kg). 30 min after injection, 100 μl blood was collected into heparinised tubes directly from decapitated, CO2-anesthetised mice. The blood was centrifuged at 500×G for 10 min, and plasma was removed and stored at −20° C. until analysed.
The degree of hemolysis was measured by absorbance at 550 nm using a Perkin-Elmer 320 scanning spectrophotometer. 25 μl plasma was mixed with 2,5 ml PBS or 2.5 ml 10% triton X-100. 100 percent hemolysis was defined as the maximum amount of hemolysis obtained from the plasma of PBS treated mice mixed with 10% Triton X-100 and 0 percent as plasma from PBS treated mice mixed with PBS.

extracellular PLA2 = target: T1, extracellular PLA2 (Agkistrodon piscivorus piscivorus, UniProt P51972); assay: Effect of cholesterol content of liposomes on extracellular PLA2 activity; type: biochemical
T1 construct: Purified snake venom PLA2 (Agkistrodon piscivorus piscivorus) was a generous gift; tissue gift from dr; R. L. Biltonen; host or cells: snake venom of Agkistrodon piscivorus piscivorus
T1 sequence (P51972 1-123): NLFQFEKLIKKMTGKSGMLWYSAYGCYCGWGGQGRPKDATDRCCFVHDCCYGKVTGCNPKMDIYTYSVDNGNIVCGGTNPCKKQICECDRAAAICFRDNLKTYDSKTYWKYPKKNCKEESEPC
Source text: Short-chain phospholipids, such as didecanoyl phosphatidylcholine (DCPC), activate extracellular PLA2. The effect on calcein permeation across the target membranes induced by incorporation of a small amount of DCPC into the carrier PEG-liposomes is also shown in FIG. 12.a. […] In contrast we find that a small amount of cholesterol (≈3 mol %) activates extracellular PLA2. These significant findings are of particular interest since the blood circulation time of PEG-liposomes has been reported to be almost the same without cholesterol as with large amounts of cholesterol.

[2] = Calcein release across target membrane on adding hydrolysis products in the absence of PLA2; settings: 25 μM target membranes, 39° C.
Protocol: Total release after 20 min of the fluorescent model drug calcein across the target membrane as a function of adding increasing amounts of lyso-palmitoyl phospholipid and palmitic acid, separately, and in a 1:1 mixture. The concentration of the target membranes is 25 μM in a HEPES buffer with pH=7.5 at a temperature of 39° C.
The experimental model system consists of a polymer-coated liposome carrier and a model target membrane. The carrier is a 100 nm unilamellar liposome made of dipalmitoyl phosphatidylcholine lipids (DPPC) with 2.5 mol % lipopolymer of the type dipalmitoyl phosphatidylethanolamine (DPPE)-PEG2000. The target membrane is another liposome made of 1,2-O-dioctadecyl-sn-glycero-phosphatidylcholine (D-O-SPC) which is a phospholipid where the acyl linkages of the stearoyl chains are ether bonds. In contrast to DPPC, D-O-SPC is inert towards PLA2-catalysed hydrolysis thereby mimicking the stability of an intact target cell membrane toward degradation by its own enzymes. […] The permeation of calcein across the D-O-SPC target membrane is subsequently monitored by the increase in fluorescence. […]

**Q.** For `CCCCCCCCCCCCCCCCCCOC[C@H](COP(=O)([O-])OCC[N+](C)(C)C)OC` [ET-18-OCH3], which “hemolysis (FIG. 6)” value [1] is on record?
**A.** significant degree of hemolysis

**Q.** And the “Survival (30 min), number of surviving mice” value (mice)?
**A.** 0/5

**Q.** And the “mortality of treated mice” value (mice)?
**A.** died within the 30 minutes period

**Q.** Which results are given for `CC(C)CCC[C@@H](C)[C@H]1CC[C@H]2[C@@H]3CC=C4C[C@@H](O)CC[C@]4(C)[C@H]3CC[C@]12C` [cholesterol]?
**A.** extracellular PLA2 activity (extracellular PLA2; ≈3 mol % cholesterol incorporated into liposomes): activates; extracellular PLA2 activity (extracellular PLA2; ≈20 mol % cholesterol incorporated into liposomes, data not shown): deactivated

**Q.** For `CCCCCCCCCCCCCCCC(=O)O` [fatty acid, palmitic acid], which “rate of calcein release across the target membrane (FIG. 13)” value [2] is on record?
**A.** increased rate

Source: US20040166151A1, “Lipid-based drug delivery systems containing phospholipase A2 degradable lipid derivatives and the therapeutic uses thereof” (priority 2000, published 2004)
